Consider eleven compounds from ChEMBL document CHEMBL4043153, “Lead selection of antiparasitic compounds from a focused library of benzenesulfonyl derivatives of heterocycles” (Bioorg Med Chem Lett, 2017).

Series [1] can be described thus: Selectivity index, ratio of IC50 for rat L6 cells to IC50 for Leishmania donovani MHOM-ET-67/L82 axenic amastigotes. As to conditions: read-out: Ratio IC50. The series is classed as toxicity.
In series [2] the test system is Trypanosoma brucei rhodesiense. Nature of the series: Antiparasitic activity against Trypanosoma brucei rhodesiense STIB 900 trypomastigote bloodstream form assessed as growth inhibition at 4.8 ug/ml after 72 hrs by resazurin dye-based fluorometric analysis relative to control. The conditions noted are these: STIB 900, 72 h, read-out: GI. In kind it is functional. In general terms: Alamar Blue is a resazurin reagent that responds to reducing activity.

Series [3] relates to Leishmania donovani. The series can be described thus: Antiparasitic activity against Leishmania donovani MHOM-ET-67/L82 axenic amastigotes after 72 hrs by Alamar blue assay. In kind it is functional. As to conditions: MHOM-ET-67/L82, 72 h.
In series [4] the test system is Trypanosoma brucei rhodesiense. The series can be described thus: Antiparasitic activity against Trypanosoma brucei rhodesiense STIB 900 trypomastigote bloodstream form assessed as growth inhibition at 0.8 ug/ml after 72 hrs by resazurin dye-based fluorometric analysis relative to control. The conditions noted are these: STIB 900, 72 h, read-out: GI. The series is classed as functional.

Series [5] deals with Trypanosoma cruzi. Nature of the series: Antiparasitic activity against Trypanosoma cruzi Tulahuen C4 intracellular amastigotes infected in rat L6 cells assessed as growth inhibition at 0.8 ug/ml after 96 hrs by CPRG/Nonidet reagent based photometric analysis relative to control. The series is classed as functional. The conditions noted are these: Tulahuen C4, L6, 96 h, read-out: GI.

Series [6] deals with Trypanosoma cruzi. The series can be described thus: Antiparasitic activity against Trypanosoma cruzi Tulahuen C4 intracellular amastigotes infected in rat L6 cells assessed as growth inhibition at 4.8 ug/ml after 96 hrs by CPRG/Nonidet reagent based photometric analysis relative to control. The series is classed as functional. As to conditions: Tulahuen C4, L6, 96 h, read-out: GI.

Series [7] deals with Leishmania donovani. The series can be described thus: Antiparasitic activity against Leishmania donovani MHOM-ET-67/L82 axenic amastigotes assessed as growth inhibition at 4.8 ug/ml after 72 hrs by resazurin dye-based fluorometric analysis relative to control. In kind it is functional. As to conditions: MHOM-ET-67/L82, 72 h, read-out: GI.
Series [8] concerns Plasmodium falciparum. Nature of the series: Antiparasitic activity against intraerythrocytic form of chloroquine/pyrimethamine-resistant Plasmodium falciparum K1 infected in human RBC assessed as growth inhibition at 4.8 ug/ml preincubated for 48 hrs followed by [3H]-hypoxanthine addition measured after 24 hrs by liquid scintillation counting analysis relative to control. The series is classed as functional. The conditions noted are these: read-out: GI.

Series [9] has as its system L6. The series can be described thus: Cytotoxicity against rat L6 cells assessed as cell viability after 72 hrs by Alamar blue assay. The conditions noted are these: L6, 72 h. In kind it is cell-based.
In series [10] the test system is Plasmodium falciparum. The series can be described thus: Antiparasitic activity against intraerythrocytic form of chloroquine/pyrimethamine-resistant Plasmodium falciparum K1 infected in human RBC assessed as growth inhibition at 0.8 ug/ml preincubated for 48 hrs followed by [3H]-hypoxanthine addition measured after 24 hrs by liquid scintillation counting analysis relative to control. The series is classed as functional. The conditions noted are these: read-out: GI.

The subject of series [11] is Leishmania donovani. Nature of the series: Antiparasitic activity against Leishmania donovani MHOM-ET-67/L82 axenic amastigotes assessed as growth inhibition at 0.8 ug/ml after 72 hrs by resazurin dye-based fluorometric analysis relative to control. The series is classed as functional. As to conditions: MHOM-ET-67/L82, 72 h, read-out: GI.
Series [12] in a line: Selectivity index, ratio of IC50 for rat L6 cells to IC50 for intraerythrocytic form of chloroquine/pyrimethamine-resistant Plasmodium falciparum K1 infected in human RBC. In kind it is toxicity. The conditions noted are these: read-out: Ratio IC50.
In series [13] the test system is Plasmodium falciparum. The series can be described thus: Antiparasitic activity against intraerythrocytic form of chloroquine/pyrimethamine-resistant Plasmodium falciparum K1 infected in human RBC preincubated for 48 hrs followed by [3H]-hypoxanthine addition measured after 24 hrs by liquid scintillation counting analysis. The series is classed as functional.
Series [14] in a line: Selectivity index, ratio of IC50 for rat L6 cells to IC50 for Trypanosoma cruzi Tulahuen C4 intracellular amastigotes infected in rat L6 cells. In kind it is toxicity, cell-based. As to conditions: read-out: Ratio IC50.
The subject of series [15] is Trypanosoma cruzi. Nature of the series: Antiparasitic activity against Trypanosoma cruzi Tulahuen C4 intracellular amastigotes infected in rat L6 cells after 96 hrs by CPRG/Nonidet reagent based photometric analysis. In kind it is functional, cell-based. The conditions noted are these: Tulahuen C4, L6, 96 h.
Series [16] deals with Leishmania donovani. Nature of the series: Antiparasitic activity against Leishmania donovani MHOM-ET-67/L82 axenic amastigotes. The series is classed as functional.
The subject of series [17] is L6. The series can be described thus: Cytotoxicity against rat L6 cells. In kind it is cell-based.
In series [18] the test system is Plasmodium falciparum. The series can be described thus: Antiparasitic activity against intraerythrocytic form of chloroquine/pyrimethamine-resistant Plasmodium falciparum K1. The series is classed as functional.
For series [19], the system named is Trypanosoma cruzi. The series can be described thus: Antiparasitic activity against Trypanosoma cruzi Tulahuen C4 intracellular amastigotes infected in rat L6 cells. In kind it is functional, cell-based.

In general, IC50 refers to the concentration at which inhibition is half-maximal. For `Cc1cc(C)c(C)c(S(=O)(=O)N2CCc3ccccc3C2)c1C`, in series [1], the selectivity ratio was determined as 4.8. The inhibition of growth at 4.8 µg/mL was determined as 1.7% in series [2], 23.1% in series [6], 100% in [7] and 18.8% in series [8]. For the same compound, the figures for the concentration for half-maximal inhibition (IC50) in [3] and in [9] were 760 nM and 3.6 µM, respectively. Besides, the inhibition of growth at 0.8 µg/mL stood at 2% in [4], 1.8% in [5], 4.5% in series [10] and 63.3% in series [11].
`Cc1cc(C)c(C)c(S(=O)(=O)N2CCc3ccccc32)c1C`: the selectivity ratio in series [1] is 17.2. Further, the inhibition of growth at 4.8 µg/mL in [2] was 5.7%; in [6], 31.4%; in series [7], 100%; in series [8] it was 41.8%. For the same compound, the figures for the IC50 in [3] and in series [9] were 730 nM and 12.6 µM, respectively. Moreover, the inhibition of growth at 0.8 µg/mL in series [4] is 5.5%; in [5], 10.3%; in series [10], 3.3%; in series [11], 61.3%.
As for `CC1CCc2ccccc2N1S(=O)(=O)c1ccc(C(C)(C)C)cc1` (stereo unspecified), the values for the selectivity ratio in series [1], in series [12] and in series [14] were 3.15, 4.57 and 1.12, respectively. Besides, the inhibition of growth at 4.8 µg/mL worked out at 0% in series [2], 100% in series [6], 100% in series [7] and 100% in [8]. Moreover, the IC50 in [3] worked out at 2160 nM; in [13] it was 1500 nM; in series [9], 6.81 µM; in series [15], 6.06 µM. In addition, the inhibition of growth at 0.8 µg/mL in [4] stood at 8.2%; in [5], 28%; in [10], 79.9%; in series [11], 62%.
Take `O=S(=O)(c1ccc(Cl)cc1)N1CCCc2ccccc21`: the IC50 in [16] was found to be 18.9 µM; in series [17], 20.5 µM; in [18], 8.43 µM; in series [19], 16 µM. Moreover, the selectivity ratio was 1.09 in series [1], 2.43 in [12] and 1.28 in [14].
`Cc1cc(C)c(C)c(S(=O)(=O)n2ccc3ccccc32)c1C`: the selectivity ratio in series [1] stood at 13.4. Further, the inhibition of growth at 4.8 µg/mL in series [2] came out at 2.7%; in series [6], 24.7%; in series [7], 100%; in [8] it was 41.4%. The IC50 was 640 nM in [3] and 8.97 µM in series [9]. For the same compound, the inhibition of growth at 0.8 µg/mL in series [4] amounted to 3.1%; in series [5], 0.2%; in [10] it was 3.2%; in [11], 76.4%.
For `Cc1cc(C)c(C)c(S(=O)(=O)N2c3ccccc3CCC2C)c1C` (stereo unspecified), the selectivity ratio in series [1] came to 20. Moreover, the inhibition of growth at 4.8 µg/mL in series [2] was found to be 0%; in series [6], 69.3%; in [7], 100%; in series [8], 78%. In addition, the IC50 stood at 620 nM in [3] and 12.4 µM in [9]. For the same compound, the inhibition of growth at 0.8 µg/mL was 0% in series [4], 9.7% in [5], 6.7% in series [10] and 73.1% in [11].
Regarding `Cc1cc(C)c(C)c(S(=O)(=O)N2CCCc3ccccc32)c1C`, the selectivity ratio in [1] worked out at 7.53. Besides, the inhibition of growth at 4.8 µg/mL in [2] came out at 3.7%; in series [6], 60.3%; in series [7] it was 100%; in [8], 56.5%. Moreover, the results for the IC50 in [3] and in series [9] were 360 nM and 2.71 µM, respectively. The inhibition of growth at 0.8 µg/mL is 2.7% in [4], 15.5% in series [5], 3.1% in [10] and 94.2% in series [11].
For `Cc1cc(C)c(C)c(S(=O)(=O)N2c3ccccc3CC2C)c1C` (stereo unspecified), the selectivity ratio in series [1] came to 28.8. In addition, the inhibition of growth at 4.8 µg/mL turned out to be 0% in [2], 75.2% in [6], 100% in [7] and 76.7% in [8]. The IC50 in series [3] is 230 nM; in [9], 6.62 µM. Further, the inhibition of growth at 0.8 µg/mL in series [4] is 0%; in [5] it was 0%; in [10], 5.5%; in [11], 77.2%.
For `O=[N+]([O-])c1ccc(S(=O)(=O)N2CCCc3ccccc32)cc1`, the IC50 in [16] is greater than 271 µM; in [17], 248 µM; in series [18], 8.31 µM; in series [19], 11.4 µM. Further, the selectivity ratio in series [12] is 29.9; in [14] it was 21.7.
Turning to `O=S(=O)(c1ccc(Br)cc1)N1CCCc2ccccc21`, the IC50 in [16] is 21.4 µM; in series [17], 7.36 µM; in [18] it was 6.65 µM; in series [19], 13.8 µM. In addition, the results for the selectivity ratio in series [1], in series [12] and in series [14] were 0.34, 1.11 and 0.53, respectively.
On to `CC1Cc2ccccc2N1S(=O)(=O)c1ccc(C(C)(C)C)cc1` (stereo unspecified), for which the selectivity ratio in series [1] was determined as 7.95; in series [12] it was 8.1; in series [14], 1.74. Moreover, the inhibition of growth at 4.8 µg/mL was determined as 6.4% in series [2], 100% in series [6], 100% in series [7] and 99.9% in [8]. The IC50 came out at 1530 nM in [3], 1500 nM in series [13], 12.2 µM in series [9] and 6.98 µM in series [15]. In addition, the inhibition of growth at 0.8 µg/mL was found to be 0% in series [4], 7.7% in [5], 52.8% in series [10] and 53.3% in series [11].
